According to patent US20120088664A1, “Antifungal 1,2,4-triazolyl derivatives having a 5-sulfur subtituent” (BASF SE, priority 2009, published 2012):

How the values were obtained:
Phytophthora infestans = assay type: in vivo; conditions: 300 ppm active compound, tomato plants sprayed to run-off, inoculated next day, assessed after 6 days; untreated plants 90% infected
Botrytis cinerea = assay: Preventative control of grey mold (Botrytis cinerea) on leaves of green pepper (greenhouse test); assay type: in vivo; conditions: 300 ppm active compound, green pepper seedlings sprayed to run-off, inoculated next day, assessed after 5 days; untreated plants 90% infected

SMILES | infection (fungal attack on the leaves visually assessed as % diseased leaf area) (Phytophthora infestans) | melting point | infection (fungal attack on the leaves visually assessed as % diseased leaf area) (Botrytis cinerea)
CC(C)(C)C(O)(CCc1ccc(Cl)cc1Cl)Cn1nc[nH]c1=S (stereo not shown) [Example 1, 1-(2-(2,4-dichlorophenethyl)-2-hydroxy-3,3-dimethylbutyl)-1H-1,2,4-triazole-5(4H)-thione] | 15% |  | 
CC(C)(C)C(O)(CCc1ccc(F)cc1F)Cn1nc[nH]c1=S (stereo not shown) [Example 2, 1-(2-(2,4-Difluorophenethyl)-2-hydroxy-3,3-dimethylbutyl)-1H-1,2,4-triazole-5(4H)-thione] |  | 130 to 132 °C | 
CC(C)(C)C(O)(CCc1ccc(Cl)c(Cl)c1)Cn1nc[nH]c1=S (stereo not shown) [Example 3, 1-(2-(3,4-Dichlorophenethyl)-2-hydroxy-3,3-dimethylbutyl)-1H-1,2,4-triazole-5(4H)-thione] |  | 155 to 157 °C | 
CC(C)(C)C(O)(CCc1ccc(F)cc1)Cn1nc[nH]c1=S (stereo not shown) [Example 4, 1-(2-(4-Fluorophenethyl)-2-hydroxy-3,3-dimethylbutyl)-1H-1,2,4-triazole-5(4H)-thione] |  | 134 to 135 °C | 7%
Cc1ccc(CCC(O)(Cn2nc[nH]c2=S)C(C)(C)C)cc1 (stereo not shown) [Example 5, 1-(2-hydroxy-3,3-dimethyl-2-(4-methylphenethyl)butyl)-1H-1,2,4-triazole-5(4H)-thione] |  | 137 to 138 °C | 
CC(C)(C)C(O)(CCc1ccc(C(F)(F)F)cc1)Cn1nc[nH]c1=S (stereo not shown) [Example 6, 1-(2-Hydroxy-3,3-dimethyl-2-(4-(trifluoromethyl)phenethyl)butyl)-1H-1,2,4-triazole-5(4H)-thione] |  | 139 to 140 °C | 
